{
  "source": "patent US20250312334A1",
  "about": "“COMPOSITION CONTAINING ARIPIPRAZOLE AS ACTIVE INGREDIENT FOR ENHANCING ANTICANCER EFFECT OF RAF INHIBITOR” (KOREA INSTITUTE OF RADIOLOGICAL & MEDICAL SCIENCES, priority 2022, published 2025)",
  "system": "COLO 205 cells",
  "experiment": "Western blot of NOXA and PUMA protein expression after aripiprazole treatment",
  "type": "cell-based",
  "conditions": "8 hours after treatment, Western blot (FIG. 1)",
  "method": "To identify an effect of aripiprazole on the expression of NOXA and PUMA proteins in cancer cells, COLO 205 cells were treated with aripiprazole. Eight hours later, proteins were extracted from cells after washing with PBS, and a level of NOXA and PUMA expression was checked via Western blot.",
  "data": [
    {"smiles": "O=C1CCc2ccc(OCCCCN3CCN(c4cccc(Cl)c4Cl)CC3)cc2N1", "note": "[aripiprazole]", "values": [
      {"measurement": "expression of NOXA protein", "result": "increased"},
      {"measurement": "expression of PUMA protein", "result": "increased"}
    ]}
  ]
}
